Key:
Assay in all cases: Kinase panel profiling at 1 µmol/L (mobility shift assay, Carna)
Assay type in all cases: biochemical
Conditions in all cases: 1 µmol/L of BTK inhibitor
[1] = target: T1, RSK4 (Homo sapiens, UniProt Q9UK32)
T1 construct: purchased Carna Biosciences

[2] = target: T2, KDR (Homo sapiens, UniProt P35968)
T2 construct: purchased Carna Biosciences

[3] = target: T3, CDC7/ASK (Homo sapiens, UniProt O00311)
T3 construct: purchased Carna Biosciences

[4] = target: T4, CaMK4 (Homo sapiens, UniProt Q16566)
T4 construct: purchased Carna Biosciences
T4 sequence (Q16566 1-473): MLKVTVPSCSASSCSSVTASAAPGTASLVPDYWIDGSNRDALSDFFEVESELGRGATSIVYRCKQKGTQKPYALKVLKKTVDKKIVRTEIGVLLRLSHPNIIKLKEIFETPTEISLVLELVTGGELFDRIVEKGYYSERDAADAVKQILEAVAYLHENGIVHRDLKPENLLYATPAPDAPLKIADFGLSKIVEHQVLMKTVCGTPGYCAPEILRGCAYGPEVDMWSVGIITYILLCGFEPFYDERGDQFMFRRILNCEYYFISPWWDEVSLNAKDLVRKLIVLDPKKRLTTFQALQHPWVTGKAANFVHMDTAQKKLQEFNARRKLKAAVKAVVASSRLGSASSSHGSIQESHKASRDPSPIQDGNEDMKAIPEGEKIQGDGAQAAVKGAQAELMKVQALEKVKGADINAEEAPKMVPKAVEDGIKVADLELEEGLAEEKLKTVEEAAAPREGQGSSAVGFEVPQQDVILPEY

[5] = target: T5, MAP4K2 (Homo sapiens, UniProt Q12851)
T5 construct: purchased Carna Biosciences
T5 sequence (Q12851 1-820): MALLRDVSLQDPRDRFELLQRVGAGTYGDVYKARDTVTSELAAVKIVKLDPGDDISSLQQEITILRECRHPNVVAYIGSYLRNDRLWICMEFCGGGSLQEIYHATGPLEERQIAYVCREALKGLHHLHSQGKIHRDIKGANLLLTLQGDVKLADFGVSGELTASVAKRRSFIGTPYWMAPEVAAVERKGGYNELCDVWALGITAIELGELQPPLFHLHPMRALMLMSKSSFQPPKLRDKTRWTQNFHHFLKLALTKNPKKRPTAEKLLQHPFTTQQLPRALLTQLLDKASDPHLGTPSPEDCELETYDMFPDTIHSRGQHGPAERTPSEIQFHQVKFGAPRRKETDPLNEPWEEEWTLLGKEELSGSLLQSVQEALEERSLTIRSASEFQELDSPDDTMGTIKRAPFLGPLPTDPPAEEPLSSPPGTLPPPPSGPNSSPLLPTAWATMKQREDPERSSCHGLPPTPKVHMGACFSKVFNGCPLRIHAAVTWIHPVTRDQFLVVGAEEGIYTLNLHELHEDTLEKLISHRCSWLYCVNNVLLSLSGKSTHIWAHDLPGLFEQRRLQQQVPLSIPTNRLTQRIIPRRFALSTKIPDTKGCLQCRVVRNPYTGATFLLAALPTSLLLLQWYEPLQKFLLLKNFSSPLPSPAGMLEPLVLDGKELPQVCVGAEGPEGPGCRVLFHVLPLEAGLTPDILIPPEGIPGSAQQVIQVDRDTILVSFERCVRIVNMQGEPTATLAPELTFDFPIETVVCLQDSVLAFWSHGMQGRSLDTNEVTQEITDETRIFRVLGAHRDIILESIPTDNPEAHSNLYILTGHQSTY

[6] = target: T6, PAK5 (Homo sapiens, UniProt Q9P286)
T6 construct: purchased Carna Biosciences

[7] = target: T7, WNK2 (Homo sapiens, UniProt Q9Y3S1)
T7 construct: purchased Carna Biosciences

[8] = target: T8, HER4 (Homo sapiens, UniProt Q15303)
T8 construct: purchased Carna Biosciences

[9] = target: T9, NDR1 (Homo sapiens, UniProt Q15208)
T9 construct: purchased Carna Biosciences

[10] = target: T10, LATS2 (Homo sapiens, UniProt Q9NRM7)
T10 construct: purchased Carna Biosciences
T10 sequence (Q9NRM7 1-1088): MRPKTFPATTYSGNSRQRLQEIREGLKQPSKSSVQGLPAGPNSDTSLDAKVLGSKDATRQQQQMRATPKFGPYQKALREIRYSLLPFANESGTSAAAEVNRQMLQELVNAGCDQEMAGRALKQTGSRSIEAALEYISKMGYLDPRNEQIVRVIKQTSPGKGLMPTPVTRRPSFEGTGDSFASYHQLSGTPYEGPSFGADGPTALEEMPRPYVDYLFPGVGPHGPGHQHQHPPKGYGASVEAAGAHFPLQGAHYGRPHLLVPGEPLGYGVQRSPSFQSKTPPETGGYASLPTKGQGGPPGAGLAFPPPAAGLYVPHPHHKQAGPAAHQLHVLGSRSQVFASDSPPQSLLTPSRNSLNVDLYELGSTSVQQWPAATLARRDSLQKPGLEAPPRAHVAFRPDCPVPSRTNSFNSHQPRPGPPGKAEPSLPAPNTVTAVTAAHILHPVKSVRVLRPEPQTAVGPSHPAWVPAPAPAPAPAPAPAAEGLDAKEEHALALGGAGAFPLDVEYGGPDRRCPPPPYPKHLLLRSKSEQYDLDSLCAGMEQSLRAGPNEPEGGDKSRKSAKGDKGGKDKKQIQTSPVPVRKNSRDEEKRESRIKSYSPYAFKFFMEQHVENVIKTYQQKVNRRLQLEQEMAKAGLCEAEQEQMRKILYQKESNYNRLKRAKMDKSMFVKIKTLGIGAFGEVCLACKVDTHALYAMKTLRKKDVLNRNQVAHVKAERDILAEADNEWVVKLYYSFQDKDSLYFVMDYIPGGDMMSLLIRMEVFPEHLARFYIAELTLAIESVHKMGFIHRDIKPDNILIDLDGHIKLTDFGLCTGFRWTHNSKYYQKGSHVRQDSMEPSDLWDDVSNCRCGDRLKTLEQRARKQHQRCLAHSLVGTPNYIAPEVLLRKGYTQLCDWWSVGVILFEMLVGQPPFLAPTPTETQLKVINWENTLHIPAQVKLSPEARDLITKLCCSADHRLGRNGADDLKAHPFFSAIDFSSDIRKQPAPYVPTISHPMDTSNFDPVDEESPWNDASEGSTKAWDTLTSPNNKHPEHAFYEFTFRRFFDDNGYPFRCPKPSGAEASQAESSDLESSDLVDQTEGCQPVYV

[11] = target: T11, PIM3 (Homo sapiens, UniProt Q86V86)
T11 construct: purchased Carna Biosciences

T3 sequence (O00311 whole entry): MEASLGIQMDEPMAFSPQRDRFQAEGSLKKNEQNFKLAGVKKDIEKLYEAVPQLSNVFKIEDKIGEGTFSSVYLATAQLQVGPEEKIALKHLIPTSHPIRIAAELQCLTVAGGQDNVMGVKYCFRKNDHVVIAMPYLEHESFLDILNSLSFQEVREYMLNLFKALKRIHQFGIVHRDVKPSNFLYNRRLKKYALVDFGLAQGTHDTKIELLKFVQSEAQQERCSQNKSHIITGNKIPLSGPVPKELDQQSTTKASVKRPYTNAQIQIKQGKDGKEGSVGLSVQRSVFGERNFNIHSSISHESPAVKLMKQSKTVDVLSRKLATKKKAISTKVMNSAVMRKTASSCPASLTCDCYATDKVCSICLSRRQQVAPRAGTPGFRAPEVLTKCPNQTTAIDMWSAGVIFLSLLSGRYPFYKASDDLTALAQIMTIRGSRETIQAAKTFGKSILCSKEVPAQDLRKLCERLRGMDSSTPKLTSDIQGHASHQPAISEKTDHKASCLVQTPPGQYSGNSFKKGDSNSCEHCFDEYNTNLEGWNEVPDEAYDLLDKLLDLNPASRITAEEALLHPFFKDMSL
T3 sequence (Q9UBU7 whole entry partner): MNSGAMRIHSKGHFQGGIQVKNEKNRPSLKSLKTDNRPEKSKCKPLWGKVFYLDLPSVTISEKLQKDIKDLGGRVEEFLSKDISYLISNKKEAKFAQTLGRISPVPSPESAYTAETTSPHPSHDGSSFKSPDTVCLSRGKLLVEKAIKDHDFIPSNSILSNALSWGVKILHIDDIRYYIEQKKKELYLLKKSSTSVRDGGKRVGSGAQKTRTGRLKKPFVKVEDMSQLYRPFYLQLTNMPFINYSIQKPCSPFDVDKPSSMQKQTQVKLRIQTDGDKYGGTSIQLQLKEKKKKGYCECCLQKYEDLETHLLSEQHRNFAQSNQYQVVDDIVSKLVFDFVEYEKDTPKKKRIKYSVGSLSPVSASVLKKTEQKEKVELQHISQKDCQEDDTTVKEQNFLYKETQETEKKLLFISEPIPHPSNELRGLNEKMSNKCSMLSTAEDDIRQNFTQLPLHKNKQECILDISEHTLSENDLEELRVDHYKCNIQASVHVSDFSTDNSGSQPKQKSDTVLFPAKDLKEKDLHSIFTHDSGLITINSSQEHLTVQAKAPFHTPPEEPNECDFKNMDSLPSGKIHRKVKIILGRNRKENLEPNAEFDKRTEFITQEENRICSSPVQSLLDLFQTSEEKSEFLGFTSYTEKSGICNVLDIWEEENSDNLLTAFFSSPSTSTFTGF
T1 sequence (Q9UK32 whole entry): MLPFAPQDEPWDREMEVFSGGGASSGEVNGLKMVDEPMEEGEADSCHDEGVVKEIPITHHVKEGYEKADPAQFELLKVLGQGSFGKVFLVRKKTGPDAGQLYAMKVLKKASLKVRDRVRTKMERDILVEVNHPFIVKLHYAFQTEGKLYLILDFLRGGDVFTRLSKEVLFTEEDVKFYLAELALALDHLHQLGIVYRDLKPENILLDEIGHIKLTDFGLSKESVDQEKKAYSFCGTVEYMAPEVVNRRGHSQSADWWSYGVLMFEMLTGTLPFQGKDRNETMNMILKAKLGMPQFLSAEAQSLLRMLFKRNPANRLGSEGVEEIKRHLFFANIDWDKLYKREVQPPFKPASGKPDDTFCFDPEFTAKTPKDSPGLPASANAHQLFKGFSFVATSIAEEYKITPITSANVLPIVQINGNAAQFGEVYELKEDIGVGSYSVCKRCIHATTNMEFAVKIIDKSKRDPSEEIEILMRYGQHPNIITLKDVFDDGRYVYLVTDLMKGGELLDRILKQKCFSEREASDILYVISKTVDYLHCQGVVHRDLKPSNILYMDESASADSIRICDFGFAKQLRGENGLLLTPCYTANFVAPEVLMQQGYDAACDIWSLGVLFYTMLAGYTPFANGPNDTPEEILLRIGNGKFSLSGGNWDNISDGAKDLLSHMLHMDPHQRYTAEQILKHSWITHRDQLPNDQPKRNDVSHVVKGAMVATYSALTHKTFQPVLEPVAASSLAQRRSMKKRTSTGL
T9 sequence (Q15208 whole entry): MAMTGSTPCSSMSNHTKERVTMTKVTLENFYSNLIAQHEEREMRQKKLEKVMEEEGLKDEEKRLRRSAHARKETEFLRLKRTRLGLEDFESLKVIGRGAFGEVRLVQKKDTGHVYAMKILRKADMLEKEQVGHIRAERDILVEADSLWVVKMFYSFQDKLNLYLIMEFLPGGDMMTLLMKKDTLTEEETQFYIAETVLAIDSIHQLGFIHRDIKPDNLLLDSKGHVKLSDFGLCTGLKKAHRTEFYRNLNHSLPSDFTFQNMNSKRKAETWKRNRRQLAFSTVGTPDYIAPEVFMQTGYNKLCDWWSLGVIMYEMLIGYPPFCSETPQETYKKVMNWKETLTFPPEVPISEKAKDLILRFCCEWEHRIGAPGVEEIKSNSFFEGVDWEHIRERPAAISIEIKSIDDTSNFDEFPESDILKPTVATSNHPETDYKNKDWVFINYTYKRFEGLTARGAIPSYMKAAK
T8 sequence (Q15303 26-1308): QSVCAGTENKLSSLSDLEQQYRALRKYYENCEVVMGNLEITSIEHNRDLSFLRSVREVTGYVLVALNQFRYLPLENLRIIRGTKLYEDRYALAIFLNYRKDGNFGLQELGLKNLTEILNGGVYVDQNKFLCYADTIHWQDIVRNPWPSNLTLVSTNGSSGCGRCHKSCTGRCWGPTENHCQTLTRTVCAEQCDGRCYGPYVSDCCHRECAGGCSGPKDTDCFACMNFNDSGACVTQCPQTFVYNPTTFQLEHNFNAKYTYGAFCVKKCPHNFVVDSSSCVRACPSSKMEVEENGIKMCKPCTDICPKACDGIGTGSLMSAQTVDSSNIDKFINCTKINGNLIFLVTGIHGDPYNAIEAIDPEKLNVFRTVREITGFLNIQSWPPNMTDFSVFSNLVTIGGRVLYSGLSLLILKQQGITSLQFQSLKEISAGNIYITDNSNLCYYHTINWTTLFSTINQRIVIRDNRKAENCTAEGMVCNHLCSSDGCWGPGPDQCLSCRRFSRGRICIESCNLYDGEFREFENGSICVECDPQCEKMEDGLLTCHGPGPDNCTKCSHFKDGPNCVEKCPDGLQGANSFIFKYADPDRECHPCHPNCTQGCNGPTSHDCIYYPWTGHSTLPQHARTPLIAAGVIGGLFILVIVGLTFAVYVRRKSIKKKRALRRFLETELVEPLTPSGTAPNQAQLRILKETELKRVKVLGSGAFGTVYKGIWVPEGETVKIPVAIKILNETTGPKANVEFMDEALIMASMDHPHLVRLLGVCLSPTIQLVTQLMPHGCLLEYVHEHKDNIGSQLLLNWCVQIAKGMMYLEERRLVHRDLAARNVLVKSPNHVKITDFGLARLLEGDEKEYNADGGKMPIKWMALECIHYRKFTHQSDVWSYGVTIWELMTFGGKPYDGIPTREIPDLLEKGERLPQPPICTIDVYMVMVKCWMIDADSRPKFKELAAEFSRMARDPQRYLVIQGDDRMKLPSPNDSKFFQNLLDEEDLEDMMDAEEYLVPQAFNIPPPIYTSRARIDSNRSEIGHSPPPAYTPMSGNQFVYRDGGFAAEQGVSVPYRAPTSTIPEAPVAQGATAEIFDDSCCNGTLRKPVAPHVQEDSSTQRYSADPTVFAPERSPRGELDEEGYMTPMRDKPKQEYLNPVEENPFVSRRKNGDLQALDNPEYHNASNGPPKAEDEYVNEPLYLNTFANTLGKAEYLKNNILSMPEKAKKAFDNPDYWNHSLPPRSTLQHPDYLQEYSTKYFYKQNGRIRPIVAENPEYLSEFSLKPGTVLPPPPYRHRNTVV
T6 sequence (Q9P286 whole entry): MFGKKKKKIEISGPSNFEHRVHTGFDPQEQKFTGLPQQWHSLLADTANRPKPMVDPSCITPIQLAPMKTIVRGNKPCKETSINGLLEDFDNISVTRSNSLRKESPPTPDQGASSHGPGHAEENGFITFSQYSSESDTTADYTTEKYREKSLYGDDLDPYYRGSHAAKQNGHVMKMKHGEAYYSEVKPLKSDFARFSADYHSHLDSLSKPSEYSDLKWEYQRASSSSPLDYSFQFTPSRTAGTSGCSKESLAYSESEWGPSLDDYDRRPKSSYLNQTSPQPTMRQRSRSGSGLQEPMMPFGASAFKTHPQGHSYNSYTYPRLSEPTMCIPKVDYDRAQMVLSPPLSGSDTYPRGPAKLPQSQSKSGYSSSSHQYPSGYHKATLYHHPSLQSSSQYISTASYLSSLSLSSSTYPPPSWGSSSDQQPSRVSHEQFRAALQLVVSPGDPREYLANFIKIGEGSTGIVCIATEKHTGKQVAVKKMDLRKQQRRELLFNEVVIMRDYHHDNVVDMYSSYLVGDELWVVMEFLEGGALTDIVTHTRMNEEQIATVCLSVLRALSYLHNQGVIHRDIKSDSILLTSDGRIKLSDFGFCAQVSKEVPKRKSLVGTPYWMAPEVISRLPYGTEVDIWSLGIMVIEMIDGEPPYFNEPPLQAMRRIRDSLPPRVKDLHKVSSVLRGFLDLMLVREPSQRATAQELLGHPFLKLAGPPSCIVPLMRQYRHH

**Q.** `CC#CC(=O)N1CCC[C@H]1c1nc(-c2ccc(C(=O)Nc3ccccn3)cc2)c2c(N)nccn12` [acalabrutinib] was tested. Which “Percentage inhibition of kinase enzyme activity” value (shortened to “Percentage inhibition”) [1] did it give?
**A.** 4.21%

**Q.** And the “Percentage inhibition” value [2]?
**A.** 6.81%

**Q.** What about the “Percentage inhibition” value [3] of the same compound?
**A.** -1.64%

**Q.** What about the “Percentage inhibition” value [4] of the same compound?
**A.** -8.42%

**Q.** What about the “Percentage inhibition” value [5] of the same compound?
**A.** -11.21%

**Q.** And the “Percentage inhibition” value [6]?
**A.** -0.37%

**Q.** What about the “Percentage inhibition” value [7] of the same compound?
**A.** 0.79%

**Q.** And the “Percentage inhibition” value [8]?
**A.** 77.61%

**Q.** And the “Percentage inhibition” value [9]?
**A.** -6.32%

**Q.** And the “Percentage inhibition” value [10]?
**A.** -7.45%

**Q.** What about the “Percentage inhibition” value [11] of the same compound?
**A.** -0.0376%

**Q.** How did the “Percentage inhibition” value [1] turn out when `COc1ccc(F)cc1C(=O)NCc1ccc(-c2nn([C@@H](C)C(F)(F)F)c(N)c2C(N)=O)cc1` [pirtobrutinib] was run?
**A.** -0.12%

**Q.** And the “Percentage inhibition” value [2]?
**A.** -1.66%

**Q.** What about the “Percentage inhibition” value [3] of the same compound?
**A.** -5.67%

**Q.** And the “Percentage inhibition” value [4]?
**A.** -9.89%

**Q.** What about the “Percentage inhibition” value [5] of the same compound?
**A.** 3.56%

**Q.** What about the “Percentage inhibition” value [6] of the same compound?
**A.** -1.30%

**Q.** And the “Percentage inhibition” value [7]?
**A.** 11.58%

**Q.** What about the “Percentage inhibition” value [8] of the same compound?
**A.** 69.88%

**Q.** What about the “Percentage inhibition” value [9] of the same compound?
**A.** 1.20%

**Q.** What about the “Percentage inhibition” value [10] of the same compound?
**A.** 2.57%

**Q.** What about the “Percentage inhibition” value [11] of the same compound?
**A.** 1.44%

**Q.** `C=CC(=O)N1CCC[C@@H](n2nc(-c3ccc(Oc4ccccc4)cc3)c3c(N)ncnc32)C1` [ibrutinib] was tested. Which “Percentage inhibition” value [1] did it give?
**A.** 5.52%

**Q.** What about the “Percentage inhibition” value [2] of the same compound?
**A.** 83.54%

**Q.** What about the “Percentage inhibition” value [3] of the same compound?
**A.** -0.99%

**Q.** What about the “Percentage inhibition” value [4] of the same compound?
**A.** 2.93%

**Q.** And the “Percentage inhibition” value [5]?
**A.** -4.43%

**Q.** What about the “Percentage inhibition” value [6] of the same compound?
**A.** 12.42%

**Q.** What about the “Percentage inhibition” value [7] of the same compound?
**A.** 5.67%

**Q.** What about the “Percentage inhibition” value [8] of the same compound?
**A.** 98.60%

**Q.** And the “Percentage inhibition” value [9]?
**A.** 2.65%

**Q.** And the “Percentage inhibition” value [10]?
**A.** 5.45%

**Q.** What about the “Percentage inhibition” value [11] of the same compound?
**A.** -0.24%

**Q.** How did the “Percentage inhibition” value [1] turn out when `O=C(c1ccc(Oc2ccccc2)cc1Cl)c1c[nH]c2ncnc(N[C@@H]3CC[C@@H](CO)OC3)c12` [nemtabrutinib] was run?
**A.** -2.32%

**Q.** What about the “Percentage inhibition” value [2] of the same compound?
**A.** 80.64%

**Q.** And the “Percentage inhibition” value [3]?
**A.** -1.26%

**Q.** What about the “Percentage inhibition” value [4] of the same compound?
**A.** 5.83%

**Q.** And the “Percentage inhibition” value [5]?
**A.** 78.03%

**Q.** And the “Percentage inhibition” value [6]?
**A.** 66.81%

**Q.** And the “Percentage inhibition” value [7]?
**A.** 47.36%

**Q.** And the “Percentage inhibition” value [8]?
**A.** 95.14%

**Q.** And the “Percentage inhibition” value [9]?
**A.** 3.34%

**Q.** And the “Percentage inhibition” value [10]?
**A.** 70.96%

**Q.** And the “Percentage inhibition” value [11]?
**A.** -5.55%

**Q.** What does the source list for `C=CC(=O)N1CCC([C@@H]2CCNc3c(C(N)=O)c(-c4ccc(Oc5ccccc5)cc4)nn32)CC1` [zanubrutinib]?
**A.** Percentage inhibition of kinase enzyme activity [2]: -4.47%; Percentage inhibition of kinase enzyme activity [8]: 2.98%

Reference: PMC12586182 (Frontiers in Oncology, 2025)
